Measured values from patent publication US20250194599A1, “PESTICIDE FORMULATIONS” (FMC CORPORATION, priority 2022, published 2025).

Legend:
Type in all cases: in vivo
Cydia pomonella [1] = assay: Field trial Example 1: pupae counts in corrugated cardboard tree bands on 100 trees; conditions: Trial 4 (highest infestation), programs of Table 1
Method: (§1) A field trial was conducted in Argentina to determine the effect of blending codling moth pheromone, (E,E)-8,10-dodecadien-1-ol, with chlorantraniliprole for control of coding moth population in apple orchards. The first flight of codling moth was targeted, at which time standard grower treatment pheromone dispensers had been placed in the respective fields. Applications of the chlorantraniliprole or chlorantraniliprole+pheromone were timed when eggs were expected to hatch.
(§2) Treatment programs comprising nine tracts of land across three farms were performed (see FIGS. 1A-C). SC=suspension concentrate; VP=vapor releasing product; WG=water-dispersible granules.
(§3) In brief, one treatment program was performed using an application of pheromone alone at 90 DD followed by applications of chlorantraniliprole plus pheromone at 250 DD and 250DD+21 days, respectively. A separate treatment was performed by applying chlorantraniliprole alone at 250 DD and 250DD+21 days. […]
(§4) Treatment effects were determined by conducting fruit damage counts prior to second generation flights by evaluating 1000 fruit in each plot for codling moth damage. […] The bands were removed during the second week of January, taken to the lab and counted.

Cydia pomonella [2] = assay: Field trial Example 1: fruit damage counts, 1000 fruit per plot, apple orchards; conditions: Trial 4 (highest codling moth infestation), apple orchard, Argentina; programs of Table 1; letters = significantly different groups (Chi-square)
Method: as §1, §2, §3, §4

Cydia pomonella [3] = assay: Field trial Example 2: larva per hectare captured from corrugated cardboard traps in 100 trees; conditions: treatments of Table 4, FIG. 6
Method: (§5) A field trial was conducted in Argentina to evaluate the efficacy of chlorantraniliprole in combination with a kairomone, ethyl (2E,4Z)-2,4-decadienoate, to improve Cydia pomonella control in foliar application of apple (Malus domestica) compared to the efficacy of chlorantraniliprole alone and kairomone alone. SC=suspension concentrate; CS=capsule suspension
(§6) Efficacy of the trial was evaluated by (1) comparing the number of damaged fruit across the treatment groups; and (2) comparing the larva captured per hectare that were captured from corrugated cardboard traps settled in 100 trees. As shown in FIGS. 4-5, there was a significant difference in damaged fruits treatments that included chlorantraniliprole+kairomone compared to fruits treated with only chlorantraniliprole.

Cydia pomonella [4] = assay: Field trial Example 2: number of damaged fruit across treatment groups, apple; conditions: Example 2, foliar application, treatments of Table 4, FIGS. 4-5
Method: as §5, §6

Structure (SMILES)	# of Pupae Found (Cydia pomonella [1])	# Damaged Fruit/ 1000 fruit (Cydia pomonella [2]) [c]	larva per hectare captured in corrugated cardboard traps (Cydia pomonella [3])	damaged fruits out of 1000 fruits per treatment (Cydia pomonella [4])
CNC(=O)c1cc(Cl)cc(C)c1NC(=O)c1cc(Br)nn1-c1ncccc1Cl [Chlorantraniliprole Alone, 3-bromo-N-(4-chloro-2-methyl-6-(methylcarbamoyl)phenyl)-1-(3-chloropyridin-2-yl)-1H-pyrazole-5-carboxamide]	1782	39		
CCCCC/C=C\C=C\C(=O)OCC [Kairomone, ethyl (2E,4Z)-2,4-decadienoate]			larva per hectare significantly higher compared to all other treatments	number of damaged fruits significantly higher compared to all other treatments
